Reference: the supplement of paper PMC9663587

Columns and labels:
Experiment in all cases: area over the GR curve, 72 h; higher = more effect;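 note: Dye Drop or Deep Dye Drop imaging of viable cells in 384-well plates (Hoechst nuclei, LIVE/DEAD dye), nine half-log doses, GR normalized to DMSO controls and time-zero plates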
SUM190PT = system: SUM190PT
SUM149 = system: SUM149
MDAMB468 = system: MDAMB468
HCC1569 = system: HCC1569
SUM1315 = system: SUM1315
MGH312 = system: MGH312
HCC38 = system: HCC38
MDAMB415 = system: MDAMB415
HTERT_HME1 = system: HTERT_HME1
BT474 = system: BT474
HCC1187 = system: HCC1187
PDX1328 = system: PDX1328
HCC1143 = system: HCC1143

SMILES	area over the GR curve (SUM190PT) [GR]	area over the GR curve (SUM149) [GR]	area over the GR curve (MDAMB468) [GR]	area over the GR curve (HCC1569) [GR]	area over the GR curve (SUM1315) [GR]	area over the GR curve (MGH312) [GR]	area over the GR curve (HCC38) [GR]	area over the GR curve (MDAMB415) [GR]	area over the GR curve (HTERT_HME1) [GR]	area over the GR curve (BT474) [GR]	area over the GR curve (HCC1187) [GR]	area over the GR curve (PDX1328) [GR]	area over the GR curve (HCC1143) [GR]
CO[C@H]1C[C@@H]2CC[C@@H](C)[C@@](O)(O2)C(=O)C(=O)N2CCCC[C@H]2C(=O)O[C@H]([C@H](C)C[C@@H]2CC[C@@H](OCCO)[C@H](OC)C2)CC(=O)[C@H](C)/C=C(\C)[C@@H](O)[C@@H](OC)C(=O)[C@H](C)C[C@H](C)/C=C/C=C/C=C/1C [Everolimus] (max 10 µM)	0.571	0.201	0.429	0.349	0.454	0.798	0.486	0.807	0.371	0.898	0.287	0.642	0.343
CCC(=O)Nc1ccc(C(=O)Nc2ccc(Nc3ncc4c(n3)N(C)c3ccc(C)cc3C(=O)N4C)cc2)cc1 [FMF-03-145-1]	0.94	0.462	0.572	1	0.539	1.28	0.581	0.845	0.44	0.951	1.51	0.808	0.389
COc1cc(N2CCN(C)CC2)ccc1Nc1ncc2c(n1)N(C)c1ccccc1C(=O)N2CC(F)(F)F [FMF-03-146-1]	0.101	-0.0043	0.0476	-0.0612	0.0401	0.025	0.0485	0.0297	0.049	0.0118	-0.332	0.071	0.0546
CN1CC[C@H](c2c(O)cc(O)c3c(=O)cc(-c4ccccc4Cl)oc23)[C@H](O)C1 [Flavopiridol] (max 1 µM)	0.348	0.255	0.269	0.232	0.416	0.452	0.29	0.284	0.319	0.371	0.0933	0.216	0.235
CC(C)n1nc(-c2ccc3oc(N)nc3c2)c2c(N)ncnc21 [INK128/MLN0128] (max 3.162 µM)	0.791	0.318	0.502	0.508	0.647	1.22	0.536	0.692	0.401	0.834	0.416	0.745	0.474
CC(C)NC[C@@H](C(=O)N1CCN(c2ncnc3c2[C@H](C)C[C@H]3O)CC1)c1ccc(Cl)cc1 [Ipatasertib/GDC0068] (max 10 µM)	0.0489	0.124	0.223	0.227	0.124	0.933	0.122	0.758	0.0249	0.344	0.286	-0.0202	0.0662
CN(C)C(=O)c1cc2cnc(Nc3ccc(N4CCNCC4)cn3)nc2n1C1CCCC1 [LEE011/Ribociclib] (max 10 µM)	0.576	0.188	0.0162	-0.108	0.35	-0.0019	0.417	0.613	0.365	0.412	-0.0536	0.406	0.27
CCNC(=O)c1noc(-c2cc(C(C)C)c(O)cc2O)c1-c1ccc(CN2CCOCC2)cc1 [Luminespib/NVP-AUY922] (max 1 µM)	0.728	0.754	0.648	0.513	0.606	0.962	0.624	0.613	0.633	0.781	0.919	0.751	0.693
CCOc1cc2ncc(C#N)c(Nc3ccc(OCc4ccccn4)c(Cl)c3)c2cc1NC(=O)/C=C/CN(C)C [Neratinib/HKI272] (max 3.162 µM)	0.0652	0.358	0.386	0.397	0.364	0.373	0.102	0.0594	0.265	1.43	0.181	0.314	0.238
O=C(c1cc(Cc2n[nH]c(=O)c3ccccc23)ccc1F)N1CCN(C(=O)C2CC2)CC1 [Olaparib/AZD2281] (max 10 µM)	0.0197	0.184	0.0573	0.053	0.245	0.0149	0.0719	-0.0472	0.0258	0.0431	0.157	0.0373	0.0925
CC(=O)O[C@H]1C(=O)[C@@]2(C)[C@H]([C@H](OC(=O)c3ccccc3)[C@]3(O)C[C@H](OC(=O)[C@H](O)[C@@H](NC(=O)c4ccccc4)c4ccccc4)C(C)=C1C3(C)C)[C@]1(OC(C)=O)CO[C@@H]1C[C@@H]2O [Paclitaxel] (max 1 µM)	0.872	0.839	1.01	0.663	0.793	0.973	0.843	0.948	0.676	0.873	1.34	0.866	0.839
CS(=O)(=O)N1CCN(Cc2cc3nc(-c4cccc5[nH]ncc45)nc(N4CCOCC4)c3s2)CC1 [Pictilisib/GDC0941] (max 10 µM)	0.143	0.117	0.205	0.346	0.371	0.771	0.118	0.378	0.134	0.588	0.374	0.296	0.32
O=C1NC(=NCc2cccs2)SC1=Cc1ccc2ncccc2c1 [R0-3306] (max 10 µM)	0.176	0.106	0.185	0.022	0.195	0.0994	0.0714	0.0262	0.0677	0.22	0.017	0.112	0.262
CNCc1ccc(-c2[nH]c3cc(F)cc4c3c2CCNC4=O)cc1 [Rucaparib] (max 10 µM)	0.0862	0.2	0.101	-0.0162	0.371	0.189	0.139	0.11	0.121	0.122	-0.119	0.151	0.0731
CC1(N)CCN(c2cnc(-c3cccc(Cl)c3Cl)c(N)n2)CC1 [SHP099] (max 10 µM)	0.0478	0.001	0.134	-0.114	0.121	-0.0302	0.172	0.0605	0.0778	-0.022	-0.341	0.0593	0.0677
CN1CCN(CCOc2cc(OC3CCOCC3)c3c(Nc4c(Cl)ccc5c4OCO5)ncnc3c2)CC1 [Saracatinib/AZD0530] (max 10 µM)	0.181	0.132	0.139	0.188	0.244	0.537	0.101	0.208	-0.0453	0.303	0.457	0.31	0.237
Cc1cc(C(C)Nc2ccccc2)c2nc(N3CCOCC3)cc(=O)n2c1 (centres undefined) [TGX221] (max 10 µM)	-0.0619	-0.0254	0.103	0.0644	0.136	0.472	-0.0299	0.224	-0.0608	-0.0718	0.305	0.0318	0.0331
CN(C)C/C=C/C(=O)Nc1ccc(C(=O)Nc2cccc(Nc3ncc(Cl)c(-c4c[nH]c5ccccc45)n3)c2)cc1 [THZ1] (max 1 µM)	0.767	0.425	0.48	0.363	0.229	0.97	0.525	0.453	0.76	0.686	0.71	0.483	0.487
CN(C)C/C=C/C(=O)Nc1ccc(C(=O)N2CCC[C@@H](Nc3ncc(Cl)c(-c4c[nH]c5ccccc45)n3)C2)cc1 [THZ531] (max 1 µM)	0.501	0.154	0.404	0.312	0.148	0.636	0.223	0.434	0.182	0.572	0.129	0.418	0.266
CN(C)C/C=C/C(=O)Nc1ccc(C(=O)Nc2cccc(Nc3cc(-c4c[nH]c5ccccc45)ncn3)c2)cc1 [THZ-P1-2] (max 10 µM)	0.478	0.117	0.344	0.0873	0.0029	0.127	0.181	0.683	0.107	-0.079	0.331	0.0529	0.216
Cc1nc(-c2cn3c(n2)-c2ccc(-c4cnn(C(C)(C)C(N)=O)c4)cc2OCC3)n(C(C)C)n1 [Taselisib/GDC0032] (max 10 µM)	0.298	0.205	0.217	0.598	0.397	0.886	0.202	0.516	0.439	1.43	0.497	0.576	0.476
O=C1NC(=O)[C@@H](c2cn3c4c(cccc24)CCC3)[C@@H]1c1c[nH]c2ccccc12 [Tivantinib/ARQ197] (max 10 µM)	0.637	0.446	0.49	0.278	0.475	0.396	0.436	0.213	0.648	0.309	0.891	0.528	0.498
Nc1ccc(-c2ccc3ncc4ccc(=O)n(-c5cccc(C(F)(F)F)c5)c4c3c2)cn1 [Torin2] (max 1 µM)	0.749	0.255	0.437	0.487	0.486	0.816	0.538	0.627	0.339	0.604	0.588	0.643	0.362
